Where two headings read alike, the source gives them in different places.
Key:
[1] = tested on: breast cancer cell line MX-1; assay: MX-1 cell line proliferation assay (3-day); format: cell-based; conditions: Homo sapiens, MX1, MX-1 cells, Cell Titer Glo, read-out: Cellular proliferation: EC50
Experimental: The impact of compounds of the Examples on cancer cell proliferation was determined using the breast cancer cell line MX-1 (ATCC) in a 3-day proliferation assay. MX-1 cells were maintained in RPMI supplemented with 10% FBS at 37° C. and an atmosphere of 5% CO2. For compound testing, MX-1 cells were plated in 96-well black bottom plates at a density of 5000 cells/well in 90 μL of culture media and incubated at 37° overnight to allow cell adhesion and spreading. Compound dilution series were prepared in DMSO via a 3-fold serial dilution from 3 mM to 0.1 μM. The DMSO dilution series were then diluted 1:100 in phosphate buffered saline, and 10 μL of the resulted solution were added to the appropriate wells of the MX-1 cell plate. The final compound concentrations in the wells were 3, 1, 0.3, 0.1, 0.03, 0.01, 0.003, 0.001, 0.0003 and 0.0001 μM.
Luminescence readings from the Cell Titer Glo assay were normalized to the DMSO treated cells and analyzed using the GraphPad Prism software with sigmoidal curve fitting to obtain EC50s.

[2] = target: T1, second (BD2: amino acids E352-E168) bromodomain of BRD4 (Homo sapiens, UniProt O60885); assay: TR-FRET bromodomain binding assay, BRD4 BD2; conditions: Ki calculated from IC50, probe Kd and probe concentration, read-out: TR-FRET Binding Ki: BRD4 (BDII_E352-M457)
T1 construct: protocol
Procedure, shortened: (§1)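 His-tagged BRD4 bromodomain competed against an Alexa647-labeled BET-inhibitor probe by TR-FRET in 20 mM sodium phosphate pH 6.0, 50 mM NaCl, 1 mM EDTA, 0.01% Triton X-100, 1 mM DTT.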

[3] = target: T2, first (BD1: amino acids K57-E168) bromodomain of BRD4 (Homo sapiens, UniProt O60885); assay: TR-FRET bromodomain binding assay, BRD4 BD1; conditions: Ki calculated from IC50, probe Kd and probe concentration, read-out: TR-FRET Binding Ki: BRD4 (BDI_K57-E168)
T2 construct: His-tagged first (BD1: amino acids K57-E168)
Procedure, shortened: as §1

[4] = TR-FRET assay protocol (A-G, compound concentration range)
[5] = TR-FRET assay protocol (D, E or G) per compound

EC50 ([1]; 72 h incubation)	Ki [2, 4]	Ki [3, 4]	EC50 ([1]; 72 hours with compound)	Ki [2, 5]	Ki [3, 5]	Compound
> 3 µM	0.0909 µM	0.437 µM				CCS(=O)(=O)Nc1ccc(Oc2ccc(F)cc2F)c(-c2cn(C)c(=O)cc2OC2CCNCC2)c1 [Example 322, N-{4-(2,4-difluorophenoxy)-3-[1-methyl-6-oxo-4-(piperidin-4-yloxy)-1,6-dihydropyridin-3-yl]phenyl}ethanesulfonamide]
1.01 µM	0.108 µM	0.326 µM				CCCS(=O)(=O)Nc1ccc(Oc2ccccc2)c(-c2nn(C)c(=O)cc2OC)c1 [Example 24, N-[3-(4-methoxy-1-methyl-6-oxo-1,6-dihydropyridazin-3-yl)-4-phenoxyphenyl]propane-1-sulfonamide]
0.281 µM	0.00513 µM	0.00749 µM				CN1CCN(Cc2ccc(-c3cc(=O)n(C)nc3-c3cc(NS(C)(=O)=O)ccc3Oc3ccccc3)cc2)CC1 [Example 62, N-[3-(1-methyl-4-{4-[(4-methylpiperazin-1-yl)methyl]phenyl}-6-oxo-1,6-dihydropyridazin-3-yl)-4-phenoxyphenyl]methanesulfonamide]
0.291 µM	0.0246 µM	0.0256 µM				CCOc1cc(=O)n(C)cc1-c1cc(NC(=O)c2ccc(NC(C)=O)cc2)ccc1Oc1ccc(F)cc1F [Example 300, 4-(acetylamino)-N-[4-(2,4-difluorophenoxy)-3-(4-ethoxy-1-methyl-6-oxo-1,6-dihydropyridin-3-yl)phenyl]benzamide]
16.4 µM	1.91 µM	24.3 µM				COC(=O)CCc1cc(=O)n(C)nc1-c1ccccc1Oc1ccccc1 [Example 220, methyl 3-[1-methyl-6-oxo-3-(2-phenoxyphenyl)-1,6-dihydropyridazin-4-yl]propanoate]
> 3 µM	0.0083 µM	0.0278 µM				CCS(=O)(=O)Nc1ccc(Oc2ccc(C(N)=O)cc2)c(-c2cn(C)c(=O)cc2OCC(F)(F)F)c1 [Example 294, 4-{4-[(ethylsulfonyl)amino]-2-[1-methyl-6-oxo-4-(2,2,2-trifluoroethoxy)-1,6-dihydropyridin-3-yl]phenoxy}benzamide]
			0.115 µM	0.0191 µM	0.0451 µM	CCOc1cc(=O)n(C)cc1-c1cc(NS(=O)(=O)CC)ccc1Oc1ccc(C#N)cc1F [Example 408, N-[4-(4-cyano-2-fluorophenoxy)-3-(4-ethoxy-1-methyl-6-oxo-1,6-dihydropyridin-3-yl)phenyl]ethanesulfonamide]
> 3 µM	3.29 µM	0.942 µM				Cn1cc(-c2cc(NC(=O)CN)ccc2Oc2ccccc2)ccc1=O [Example 253, N-[3-(1-methyl-6-oxo-1,6-dihydropyridin-3-yl)-4-phenoxyphenyl]glycinamide]
4.81 µM	0.872 µM	0.635 µM				Cn1cc(-c2ccccc2Oc2ccccc2)ccc1=O [Example 223, 1-methyl-5-(2-phenoxyphenyl)pyridin-2(1H)-one]
			0.832 µM	0.0221 µM	> 0.238 µM	CCOc1cc(=O)n(C)cc1-c1cc(N(C)S(=O)(=O)Cc2ccccc2)ccc1Oc1ccc(F)cc1F [Example 420, N-[4-(2,4-difluorophenoxy)-3-(4-ethoxy-1-methyl-6-oxo-1,6-dihydropyridin-3-yl)phenyl]-N-methyl-1-phenylmethanesulfonamide]
0.0481 µM	0.00529 µM	0.0107 µM				CCOc1cc(=O)n(C)cc1-c1cc(NS(C)(=O)=O)ccc1Oc1ccc(F)cc1F [Example 277, N-[4-(2,4-difluorophenoxy)-3-(4-ethoxy-1-methyl-6-oxo-1,6-dihydropyridin-3-yl)phenyl]methanesulfonamide]
> 3 µM	0.0722 µM	0.143 µM				CC(=O)NCCc1ccc(-c2cc(=O)n(C)nc2-c2ccccc2Oc2ccccc2)cc1 [Example 100, N-(2-{4-[1-methyl-6-oxo-3-(2-phenoxyphenyl)-1,6-dihydropyridazin-4-yl]phenyl}ethyl)acetamide]
1.1 µM	0.26 µM	0.197 µM				Cn1cc(-c2cc(NC(=O)c3ccc[nH]3)ccc2Oc2ccccc2)ccc1=O [Example 251, N-[3-(1-methyl-6-oxo-1,6-dihydropyridin-3-yl)-4-phenoxyphenyl]-1H-pyrrole-2-carboxamide]
0.783 µM	0.29 µM	0.0779 µM				CC(=O)Nc1ccc(Oc2ccccc2)c(-c2c[nH]c(=O)c(C)c2)c1 [Example 262, N-[3-(5-methyl-6-oxo-1,6-dihydropyridin-3-yl)-4-phenoxyphenyl]acetamide]
0.504 µM	0.0127 µM	0.0698 µM				CCOc1cc(=O)n(C)cc1-c1cc(NS(=O)(=O)c2cccc3ccccc23)ccc1Oc1ccc(F)cc1F [Example 343, N-[4-(2,4-difluorophenoxy)-3-(4-ethoxy-1-methyl-6-oxo-1,6-dihydropyridin-3-yl)phenyl]naphthalene-1-sulfonamide]
0.223 µM	0.119 µM	0.0559 µM				CCS(=O)(=O)c1ccc(OCC2CC2)c(-c2cn(C)c(=O)cc2OC)c1 [Example 275, 5-[2-(cyclopropylmethoxy)-5-(ethylsulfonyl)phenyl]-4-methoxy-1-methylpyridin-2(1H)-one]
			0.0798 µM	0.0135 µM	0.0365 µM	CCS(=O)(=O)Nc1ccc(Oc2ccc(F)cc2F)c(-c2cn(C)c(=O)cc2-c2cnn(Cc3ccccc3)c2)c1 [Example 390, N-{3-[4-(1-benzyl-1H-pyrazol-4-yl)-1-methyl-6-oxo-1,6-dihydropyridin-3-yl]-4-(2,4-difluorophenoxy)phenyl}ethanesulfonamide]
> 3 µM	0.341 µM	0.0583 µM				Cc1cc(-c2cc(NS(C)(=O)=O)ccc2OC2CCC(F)(F)CC2)c[nH]c1=O [Example 266, N-{4-[(4,4-difluorocyclohexyl)oxy]-3-(5-methyl-6-oxo-1,6-dihydropyridin-3-yl)phenyl}methanesulfonamide]
0.436 µM	0.0181 µM	0.045 µM				CCS(=O)(=O)Nc1ccc(Oc2ccc(F)cc2F)c(-c2cn(C)c(=O)cc2OCC2CCN(C(=O)OC(C)(C)C)CC2)c1 [Example 324, tert-butyl 4-{[(5-{2-(2,4-difluorophenoxy)-5-[(ethylsulfonyl)amino]phenyl}-1-methyl-2-oxo-1,2-dihydropyridin-4-yl)oxy]methyl}piperidine-1-carboxylate]
			0.0156 µM	0.00317 µM	0.00954 µM	CCOc1cc(=O)n(C)cc1-c1cc(NS(=O)(=O)CC)ccc1Oc1ccc(F)cc1 [Example 396, N-[3-(4-ethoxy-1-methyl-6-oxo-1,6-dihydropyridin-3-yl)-4-(4-fluorophenoxy)phenyl]ethanesulfonamide]
			0.0541 µM	0.0102 µM	0.0818 µM	CCOc1cc(=O)n(C)cc1-c1cc(NS(=O)(=O)CC)ccc1Oc1ccc(C(F)(F)F)cc1 [Example 386, N-{3-(4-ethoxy-1-methyl-6-oxo-1,6-dihydropyridin-3-yl)-4-[4-(trifluoromethyl)phenoxy]phenyl}ethanesulfonamide]
			0.0573 µM	0.00459 µM	0.00905 µM	CCS(=O)(=O)Nc1ccc(Oc2ccc(F)cc2F)c(-c2cn(C)c(=O)cc2-c2cnn(CC(C)C)c2)c1 [Example 391, N-[4-(2,4-difluorophenoxy)-3-{1-methyl-4-[1-(2-methylpropyl)-1H-pyrazol-4-yl]-6-oxo-1,6-dihydropyridin-3-yl]phenyl}ethanesulfonamide]
0.501 µM	0.0816 µM	0.0142 µM				Cn1cc(-c2cc(NS(C)(=O)=O)ccc2Oc2ccccc2C(F)(F)F)ccc1=O [Example 236, N-{3-(1-methyl-6-oxo-1,6-dihydropyridin-3-yl)-4-[2-(trifluoromethyl)phenoxy]phenyl}methanesulfonamide]
1.13 µM	0.455 µM	0.77 µM				COC(=O)CCc1ccc(-c2cc(=O)n(C)nc2-c2ccccc2Oc2ccccc2)cc1 [Example 92, methyl 3-{4-[1-methyl-6-oxo-3-(2-phenoxyphenyl)-1,6-dihydropyridazin-4-yl]phenyl}propanoate]

— patent publication US9561231B2 (AbbVie Inc., priority 2012, dated 2017)
